# Test results reported in patent US11008325B2, “Inhibitors of cancer invasion, attachment, and/or metastasis” (VIRGINIA COMMONWEALTH UNIVERSITY, priority 2016, dated 2021).
# Key:
# [1] = system: IGF-1R and STAT3; assay: western blot after hIGFBP-2 stimulation; assay type: cell-based; settings: dose- and time-dependent
# Method: FIGS. 17A-17H. Effect of PDZ1i on invasion, MDA-9/IGF-R1 interaction and IGF-R1, STAT3 and SRC phosphorylation. FIG. 17A) Different cancer cells (25,000 cells/well) from various anatomic origins were pre-treated with either DMSO (vehicle) or PDZ1i (dose as indicated) and invasion ability was assayed using modified Boyden Chamber according to the manufacturer's instructions. Photomicrographs were taken at 10× magnification and quantification of the results of three independent experiments is provided in the graphs. The data presents mean±S.D. B) The designated cells were treated with DMSO or PDZ1i and invasion properties were determined using a modified Boyden Chamber assay (BD bioscience). RWPE-1 mda-9: mda-9 transiently overexpressing cell line. […] FIG. 17E) Cells were growth starved for 24 h and treated with either DMSO or PDZ1i (dose indicated in μM) for 6 h. Cells were treated with human recombinant IGFBP-2 (hIGFBP-2, 10 ng/ml) for 2 h, lysates were prepared and western blot analysis was conducted with specific antibodies. FIG. 17F) Cells were serum-starved for 24 h and treated with either DMSO or PDZ1i (20 μM) for 6 h. […] Cells were treated with human recombinant […] (hIGFBP-2, 1 ng/ml) for 2 h, cell lysates were prepared and analyzed by western blotting. […]
# [2] = system: ARCaPM-Luc cells; assay: ARCaPM-Luc experimental metastasis model, PDZ1i treatment; assay type: in vivo, athymic nude mice; settings: 30 mg/kg body weight I.P.
# Method: FIG. 19A-19F. PDZ1i suppresses prostate cancer metastasis and tumor progression. FIG. 19A) Survival data for athymic nude mice in which DMSO or PDZ1i pre-treated ARCaPM cells were injected. FIG. 19B) Survival data for athymic nude mice which were injected with (n=5, each group) ARCaPM-Luc (1×10^6 cells in 100 μl saline) through an intracardiac route. Mice received either vehicle or PDZ1i every alternative day (9 injections during the first three months) and maintained until they needed to be euthanized. FIG. 19C) Survival data for C57BL/6 mice injected through the intracardiac route with RM1-Luc. Vehicle or PDZ1i was administered through intraperitoneal injection every alternate day (total 3 injections during the first week). Survival curves were generated using 6 control vehicle-treated and 5 PDZ1i-treated. Kaplan—Meier survival curves were prepared using Graph Pad software. […] Graphical representation of the average prostate weights from control and treated groups. FIG. 19E and FIG. 19F) Photomicrographs representing the histological changes in prostate sections obtained from 6-month old Hi-Myc mice receiving either vehicle (FIG. 19E) or PDZ1i (FIG. 19F).
# To evaluate potential therapeutic efficacy of PDZ1i four sets of in vivo experiments were conducted. […]
structure (smiles),measurement,setting,value
"Cc1cc(NC(=O)c2nc3[nH]c4c(c(=O)n3n2)CCC4)c(C)cc1NC(=O)CCc1nnc(-c2ccccc2)o1 [113B7, N-(2,5-dimethyl-4-(3-(5-phenyl-1,3,4-oxadiazol-2-yl)propanamido)phenyl)-8-oxo-5,6,7,8-tetrahydro-4H-cyclopenta[d][1,2,4]triazolo[1,5-a]pyrimidine-2-carboxamide]",IGF-1R and STAT3 activity,[1],down regulates
same,metastatic lesions by BLI,[2],significantly fewer lesions
same,survival,[2],prolonged survival
